Assay results reported in US5629298A, “Adenosine as a positive inotrop in the compromised heart” (University of Massachusetts Medical Center, priority 1995, dated 1997).

System: myocardial membrane adenylyl cyclase
Assay: Adenylyl cyclase activity of crude ventricular myocardial membranes
Format: biochemical, rat
Procedure: Crude ventricular myocardial membranes were prepared according to the following procedure. Isolated rat hearts were perfused with 5 ml of ice cold saline (0.9% NaCl) to wash out the blood, minced into 2-3 mm^3 cubes, and placed in 10 ml of homogenization buffer (HB) containing 10 mM HEPES (pH 7.4), 1 mM ethylenediamine-tetraacetic acid (EDTA), 1 mM DTT and 10 μg/ml soybean trypsin inhibitor. The suspension was homogenized with a PT-10 PolytronTM generator at a speed of 6 for two 15-second periods separated by 15 seconds. The homogenized material was also treated with 2 strokes of a glass/teflon motor driven Potter-Elvehjen homogenizer operated at 1/2 full speed. Upon addition of 4.7 ml of HB containing 1.25M sucrose the homogenate was mixed and centrifugated at 1,000 x g for 15 minutes. The supernatant was filtered through 4 layers of cheesecloth and 14.5 ml HB was added. […] Membranes were assayed immediately for adenylyl cyclase activity. […] The formed [α-^32 […] separated from the [α-^32 P]dATP by sequential chromatography using columns of cation exchange resin AG 50W-X4 (200-400 mesh) and neutral alumnia AG 7 (100-200 mesh) after the methods of Salomon (Adv. Cyclic Nucleotide Res. 10:35 (1979). All results were corrected for column recovery of [^3 […] ranged between 60 and 90%. The activity of the adenylyl cyclase is expressed as pmol [α-^32 […] formed/min/mg protein.

SMILES	adenylyl cyclase activity (homogenate of the rat heart ventricular myocardium, only at 1 MM CGS-21680)	adenylyl cyclase activity above basal levels (adenosine at 0 to 1 mM, absence or presence of 1 μM DPCPX, myocardium membranes)
CCNC(=O)[C@H]1O[C@@H](n2cnc3c(N)nc(NCCc4ccc(CCC(=O)O)cc4)nc32)[C@H](O)[C@@H]1O [CGS-21680, 2-p-(2-carboxy-ethyl)phenethyl-amino-5'-N-ethylcarboxamido-adenosine]	increased	–
Nc1ncnc2c1ncn2[C@@H]1O[C@H](CO)[C@@H](O)[C@H]1O [adenosine]	–	did not increase
